According to patent US7723537B2, “Skin lightening agents, compositions and methods” (Unilever Home & Personal Care USA, Division of Conopco, Inc., priority 2004, dated 2010):

Legend:
B16 mouse melanoma cells = assay: Cell based assay: melanin synthesis in B16 mouse melanoma cells; conditions: 6.25 micromolar, 72 hours, absorbency of medium at 530 nm, read-out: % of Control (Melanin Synthesis)
Experimental: This experiment was carried out using a cell based assay.
B16 mouse melanoma cells were utilized in the following experiment to evaluate the efficacy of skin lightening agents. B16 cells were plated in 96-well microtiter plates at a density of 5000 cells per well and cultured overnight in Dulbecco's Modified Eagle's Medium (phenol red free) containing 10% fetal bovine serum and 1% penicillin/streptomycin at 37° C. in the presence of 5% CO2. After 24 hours, the medium was replaced with fresh growth medium containing the treatments. All cultures were incubated for 72 hours at which time melanin was visible in the control treatment. The melanin-containing medium was transferred to a clean 96-well plate and quantified by reading the absorbency at 530-nm. Cell viability was assessed by measurement of lactate dehydrogenase levels to ensure the decrease in melanin was not a result of cellular toxicity.

mushroom tyrosinase = assay: Mushroom tyrosinase assay; format: biochemical; conditions: for Tyrosinase activity (% of ethanol control): slope of 475-nm absorbency vs ethanol control, L-DOPA substrate; for effectiveness in skin lightening as measured by the mushroom tyrosinase assay (in words): compared with 4-ethyl resorcinol
Experimental: Mushroom tyrosinase inhibition is indicative of reduction in melanin synthesis, thereby showing skin lightening effect.
Into each well of a 96-well plate, 150 microliters of phosphate buffer (100 mM, pH 7.0), 10 microliters of L-DOPA (L-3,4-Dihydroxyphenylalanine, 10 mM), and 20 microliters of skin lightening agent (dissolved in ethanol, which is the control) were added. Following an initial measurement of background absorbency at 475-nm, 20 microliters of mushroom tyrosinase (Sigma T-7755; 6050 units/ml) was added and incubated at room temperature.
Absorbency was read at 475-nm over the following time points: 0, 2, 4, and 6.5 minutes. The data is plotted as 475-nm absorbency vs. time (minutes) and the slope of the line is calculated (ΔAbs 475 nm/min). Values are expressed as the percentage of the respective untreated ethanol control reaction.

SMILES: CC(CC(=O)O)c1ccc(O)cc1O (stereo not drawn) [II, 3-(2,4-dihydroxyphenyl)-butyric acid]
- activity at 6.25 µM (B16 mouse melanoma cells): 32.8%
- Tyrosinase activity (% of ethanol control) (mushroom tyrosinase; 1 micro-M): 73.3%
- Tyrosinase activity (% of ethanol control) (mushroom tyrosinase; 1.56 micro-M): 41.6%
- Tyrosinase activity (% of ethanol control) (mushroom tyrosinase; 12.5 micro-M): 28.0%
- Tyrosinase activity (% of ethanol control) (mushroom tyrosinase; 100 micro-M): 20.6%
- effectiveness in skin lightening as measured by the mushroom tyrosinase assay (in words) (mushroom tyrosinase): substantially as effective as 4-ethyl resorcinol

SMILES: O=c1ccc2ccc(O)cc2o1 [7-Hydroxy Coumarin, reference compound]
- Tyrosinase activity (% of ethanol control) (mushroom tyrosinase; 0.1 micro-M): 104%
- Tyrosinase activity (% of ethanol control) (mushroom tyrosinase; 1 micro-M): 100%
- Tyrosinase activity (% of ethanol control) (mushroom tyrosinase; 10 micro-M): 108%
- Tyrosinase activity (% of ethanol control) (mushroom tyrosinase; 100 micro-M): 117%

SMILES: CC1CC(=O)Oc2cc(O)ccc21 (stereo not drawn) [B1, 7-hydroxy-3,4-dihydro-4-methylcoumarin]
- activity at 6.25 µM (B16 mouse melanoma cells): 75.8%
- Tyrosinase activity (% of ethanol control) (mushroom tyrosinase; 1 micro-M): 94.2%
- Tyrosinase activity (% of ethanol control) (mushroom tyrosinase; 1.56 micro-M): 90.4%
- Tyrosinase activity (% of ethanol control) (mushroom tyrosinase; 12.5 micro-M): 70.4%
- Tyrosinase activity (% of ethanol control) (mushroom tyrosinase; 100 micro-M): 75.3%
- effectiveness in skin lightening as measured by the mushroom tyrosinase assay (in words) (mushroom tyrosinase): not effective in skin lightening

SMILES: CCc1ccc(O)cc1O [4-Ethyl Resorcinol, reference compound]
- activity at 6.25 µM (B16 mouse melanoma cells): 34%
- Tyrosinase activity (% of ethanol control) (mushroom tyrosinase; 0.1 micro-M): 72.7%
- Tyrosinase activity (% of ethanol control) (mushroom tyrosinase; 1 micro-M): 46.3%
- Tyrosinase activity (% of ethanol control) (mushroom tyrosinase; 10 micro-M): 30.8%
- Tyrosinase activity (% of ethanol control) (mushroom tyrosinase; 100 micro-M): 20.7%

SMILES: COC(=O)CC(C)c1ccc(O)cc1O (stereo not drawn) [D1, Methyl 3-(2,4-dihydroxyphenyl)-butyrate]
- activity at 6.25 µM (B16 mouse melanoma cells): 36.4%
- Tyrosinase activity (% of ethanol control) (mushroom tyrosinase; 1 micro-M): 73.1%
- Tyrosinase activity (% of ethanol control) (mushroom tyrosinase; 1.56 micro-M): 39.3%
- Tyrosinase activity (% of ethanol control) (mushroom tyrosinase; 12.5 micro-M): 35.8%
- Tyrosinase activity (% of ethanol control) (mushroom tyrosinase; 100 micro-M): 41.0%
- effectiveness in skin lightening as measured by the mushroom tyrosinase assay (in words) (mushroom tyrosinase): substantially as effective as 4-ethyl resorcinol
